Data taken from patent US20240292837A1, “CHROMONE DERIVATIVES AS ATTRACTANTS AND REPELLENTS OF BLOOD-SUCKING, BITING INVERTEBRATES” (CENTRE NATIONAL DE LA RECHERCHE SCIENTIFIQUE, priority 2021, published 2024).

How the values were obtained:
[1] = system: Aedes albopictus; assay: Evaluation of the repellent and/or attractant effect in a tunnel olfactometer; assay type: in vivo; details: for Control (±SD), mean number of mosquitoes in the control zone / Treated/Product (±SD), mean number of mosquitoes in the treated zone / Treated (±SD), mean number of mosquitoes in the treated zone: 15 females; for RI (%) repulsion index / Repulsion index 5 mg deposition / Repulsion index 10 mg deposition / Repulsion index 30 mg deposition / KI (%) kairomone index: negative = attractant; for repellent or attractant effect (in words): over the doses tested; for repellent effect compared with Picaridin and DEET (in words): equivalent/identical doses (10 and 30 mg/ml)
From the text: The tunnel olfactometer is a 1 m long glass parallelepiped with a 5×5 cm side. The tube is equipped with 3 openings: two on each side, one for feeding in the paper impregnated with the product to be tested, and the other for the paper containing a control. The opening in the middle is for feeding in mosquitoes. Both ends of the tube are closed by covers.
The olfactometer is divided into three compartments or zones: • a neutral zone in the middle; • a test or treated area which is on the side of depositing the product; and • a control area which is located on the side of depositing the control.
For each test, 15 Aedes albopictus females (aged 5 to 12 days) are fed into the neutral zone of the tunnel olfactometer. Mosquitoes are kept for 10 minutes for a time of adaptation. Papers impregnated and dried with a solution of product in ethanol and pure ethanol as a reference are fed in, then the barriers are opened to allow mosquitoes to circulate freely inside the tube. Three test repetitions were carried out for each product. A repetition lasts 20 minutes and the results observed were recorded every 5 minutes.
The values measured are the activity index and the repulsion index. The activity index (Al) describes the percentage of mosquitoes in the control zone (T) and in the treated zone (P) with respect to the total number of mosquitoes tested. Said value should be greater than 30% for the test to be considered significant.
The repulsion index (RI) represents the percentage of the difference in the number of mosquitoes in the control part and in the treated part divided by the sum of the two values. A negative value of the parameter (RI) indicates an attractant activity (kairomone index. KI) of the product tested.
[formula] • Al: Activity index • RI: Repulsion index • T: Number of mosquitoes in the control area • P: Number of mosquitoes in the treated area

[2] = system: Aedes albopictus; assay: Evaluation of the combination 4-hydroxycoumarin / 7-nonyloxychromone (KI vs amount deposited, FIG. 1); assay type: in vivo
From the text: Said figure represents the IK (in %) as a function of the amount deposited (in mg).
It is possible to combine a chromone compound with other compounds of different structure.

Compound	AI (%) activity index ([1]; dose 5 mg/ml)	Control (±SD), mean number of mosquitoes in the control zone ([1]; dose 5 mg/ml in treated zone)	Treated/Product (±SD), mean number of mosquitoes in the treated zone ([1]; dose 5 mg/ml)	AI (%) activity index ([1]; dose 10 mg/ml)	Control (±SD), mean number of mosquitoes in the control zone ([1]; dose 10 mg/ml in treated zone)	Treated/Product (±SD), mean number of mosquitoes in the treated zone ([1]; dose 10 mg/ml)	AI (%) activity index ([1]; dose 30 mg/ml)	Control (±SD), mean number of mosquitoes in the control zone ([1]; dose 30 mg/ml in treated zone)	Treated/Product (±SD), mean number of mosquitoes in the treated zone ([1]; dose 30 mg/ml)	repellent or attractant effect (in words) [1]	Repulsion index 5 mg deposition [1]	Repulsion index 10 mg deposition [1]	Repulsion index 30 mg deposition [1]	KI (%) kairomone index ([1]; dose 5 mg/ml)	KI (%) kairomone index ([1]; dose 10 mg/ml)	KI (%) kairomone index ([1]; dose 30 mg/ml)	also measured
CCC(C)Oc1ccc2c(=O)ccoc2c1 (racemic) [7-sec-butoxychromone]	71.1%	7.3 ± 0.4	3.3 ± 0.1	71.8%	7.2 ± 0.9	3.6 ± 0.4	78%	8.3 ± 0.5	3.4 ± 0.9	repellent at any dose	–	–	–	–	–	–	RI (%) repulsion index ([1]; dose 5 mg/ml): 37.6%; RI (%) repulsion index ([1]; dose 10 mg/ml): 37.9%; RI (%) repulsion index ([1]; dose 30 mg/ml): 56.1%; AI (%) activity index ([1]; dose 60 mg/ml): 90.6%; Control (±SD), mean number of mosquitoes in the control zone ([1]; dose 60 mg/ml in treated zone): 11.8 ± 0.7; Treated/Product (±SD), mean number of mosquitoes in the treated zone ([1]; dose 60 mg/ml): 1.8 ± 0.2; RI (%) repulsion index ([1]; dose 60 mg/ml): 72.9%
CCCCCCCC(C)Oc1ccc2c(=O)ccoc2c1 (racemic) [7-sec-nonyloxychromone]	83.9%	2.2 ± 0.3	10.4 ± 0.1	91.7%	2.5 ± 0.5	11.3 ± 0.0	88.3%	4.8 ± 0.4	8.4 ± 0.2	stays attractant	−65.8%	−63.7%	−27.1%	−65.8%	−63.6%	−27.1%	change of attractant effect with dose (in words) ([2]; from the 10 mg dose onwards): significant decrease; AI (%) activity index ([1]; dose 0.1 mg/ml): 91.1%; Control (±SD), mean number of mosquitoes in the control zone ([1]; dose 0.1 mg/ml in treated zone): 2.5 ± 0.2; Treated (±SD), mean number of mosquitoes in the treated zone ([1]; dose 0.1 mg/ml): 11.2 ± 0.6; KI (%) kairomone index ([1]; dose 0.1 mg/ml): −63.5%; AI (%) activity index ([1]; dose 2 mg/ml): 91.1%; Control (±SD), mean number of mosquitoes in the control zone ([1]; dose 2 mg/ml in treated zone): 1.4 ± 0.4; Treated (±SD), mean number of mosquitoes in the treated zone ([1]; dose 2 mg/ml): 12.3 ± 0.0; KI (%) kairomone index ([1]; dose 2 mg/ml): −79.8%; maximum value of KI ([1]; dose of 2 mg/ml, given as magnitude): ~80%; attractant activity (KI) ([1]; up to 10 mg/ml, given as magnitude): above 65%
CCCC(C)Oc1ccc2c(=O)ccoc2c1 (racemic) [7-sec-pentoxychromone]	80.1%	2.5 ± 0.3	9.5 ± 0.2	88.3%	3.4 ± 0.4	9.8 ± 1.1	90%	4.8 ± 0.4	8.7 ± 0.4	attractant	−59.2%	−47.8%	−28.7%	−59.2%	−47.9%	−28.6%	AI (%) activity index ([1]; dose 1 mg/ml): 85%; Control (±SD), mean number of mosquitoes in the control zone ([1]; dose 1 mg/ml in treated zone): 3.5 ± 0.5; Treated (±SD), mean number of mosquitoes in the treated zone ([1]; dose 1 mg/ml): 9.3 ± 0.7; KI (%) kairomone index ([1]; dose 1 mg/ml): −45.6%
O=c1cc(O)c2ccccc2o1 [4-hydroxycoumarin]	–	–	–	–	–	–	–	–	–	–	–	–	–	–	–	–	increase in attraction ([2]; higher doses (10 and 30 mg) vs low doses): 10%; kairomone index KI ([2]; low dose (or quantity)): ~40%
CCCCCCCCCCOc1ccc2c(=O)ccoc2c1 [7-n-decyloxychromone]	–	–	–	85%	3.9 ± 0.3	8.8 ± 0.9	–	–	–	–	–	–	–	–	−37.8 ± 5.2%	–	attractant effect compared with a reference attractant (in words) ([1]; same doses): attractant effect equivalent to that of 7-sec-nonyloxychromone
CCN(CC)C(=O)c1cccc(C)c1 [DEET, reference compound]	–	–	–	–	–	–	–	–	–	–	55.5%	60.4%	59.1%	–	–	–	–
C=CC(O)CCCCC (stereo not drawn) [Octen-3-ol, octen-3-ol, reference compound]	–	–	–	–	–	–	–	–	–	–	−41.7%	−54.7%	−61.6%	–	–	–	–
CCC(C)OC(=O)N1CCCCC1CCO (stereo not drawn) [Picaridin, reference compound]	–	–	–	–	–	–	–	–	–	–	42.6%	49.6%	59.7%	–	–	–	–
CC[C@H](C)Oc1ccc2c(=O)ccoc2c1 [S-(+)-sec-butoxychromone]	91.7%	4.8 ± 0.5	9.0 ± 0.2	87.2%	4.2 ± 0.9	8.9 ± 1.1	83.3%	9.3 ± 0.8	3.3 ± 0.2	attractant at low doses and repellent at high doses	–	–	–	–	–	–	RI (%) repulsion index ([1]; dose 5 mg/ml): −31.2%; RI (%) repulsion index ([1]; dose 10 mg/ml): −35.8%; RI (%) repulsion index ([1]; dose 30 mg/ml): 47.9%; AI (%) activity index ([1]; dose 60 mg/ml): 89.4%; Control (±SD), mean number of mosquitoes in the control zone ([1]; dose 60 mg/ml in treated zone): 11.4 ± 0.8; Treated/Product (±SD), mean number of mosquitoes in the treated zone ([1]; dose 60 mg/ml): 2.0 ± 0.0; RI (%) repulsion index ([1]; dose 60 mg/ml): 70.5%
CCC[C@H](C)Oc1ccc2c(=O)ccoc2c1 [S-(+)-sec-pentoxychromone]	83.9%	3.1 ± 1.2	9.5 ± 0.7	95%	5.8 ± 0.2	8.4 ± 0.1	77.8%	5.2 ± 0.3	6.5 ± 0.7	attractant	–	–	–	−52.4%	−18.2%	−10.7%	AI (%) activity index ([1]; dose 1 mg/ml): 93.3%; Control (±SD), mean number of mosquitoes in the control zone ([1]; dose 1 mg/ml in treated zone): 3.8 ± 0.3; Treated (±SD), mean number of mosquitoes in the treated zone ([1]; dose 1 mg/ml): 10.3 ± 0.7; KI (%) kairomone index ([1]; dose 1 mg/ml): −46.3%
R-(−)-sec-butoxychromone	84%	9.5 ± 0.3	3.1 ± 0.1	88.9%	11 ± 0.3	2.3 ± 0.7	92.2%	12.4 ± 0.1	1.4 ± 0.1	repellent at any dose	51%	65.6%	79.5%	–	–	–	RI (%) repulsion index ([1]; dose 5 mg/ml): 51.3%; RI (%) repulsion index ([1]; dose 10 mg/ml): 65.6%; RI (%) repulsion index ([1]; dose 30 mg/ml): 79.5%; AI (%) activity index ([1]; dose 60 mg/ml): 92%; Control (±SD), mean number of mosquitoes in the control zone ([1]; dose 60 mg/ml in treated zone): 12.2 ± 0.1; Treated/Product (±SD), mean number of mosquitoes in the treated zone ([1]; dose 60 mg/ml): 1.6 ± 0.2; RI (%) repulsion index ([1]; dose 60 mg/ml): 76.6%; repellent effect compared with Picaridin and DEET (in words) ([1]; listed as (R) 7-sec-butoxychromone): as effective and more effective than Picaridin and DEET; repellent effect compared with Picaridin and DEET (in words) ([1]; listed as enantiomer R): as significant as DEET and picaridin
R-(−)-sec-pentoxychromone	86.7%	2.2 ± 0.4	10.8 ± 0.6	81.1%	3.6 ± 0.4	8.6 ± 0.1	90%	6.6 ± 0.4	6.9 ± 0.3	attractant	–	–	–	−66.6%	−47.1%	−2.8%	AI (%) activity index ([1]; dose 1 mg/ml): 92.2%; Control (±SD), mean number of mosquitoes in the control zone ([1]; dose 1 mg/ml in treated zone): 5.3 ± 0.3; Treated (±SD), mean number of mosquitoes in the treated zone ([1]; dose 1 mg/ml): 8.6 ± 0.2; KI (%) kairomone index ([1]; dose 1 mg/ml): −24.3%
